Converted amounts (≈) assume the structure as drawn.
Key:
[1] = Aqueous solubility (saturated conditions, 3 days, UV 297 nm); assay type: physicochemical; conditions: water, 25 °C, thermodynamic from solid
Protocol: The compounds were incubated at 25 °C in water (saturated conditions) during 3 days under orbital stirring (1000 rpm). Then, the samples were centrifuged, and the supernatants (200 μL) were analyzed in triplicate in a 96-well plate, using a phloretin calibration curve in methanol (0–200 μg/mL). The absorbance was measured at 297 nm in a UV–vis spectrophotometer (Tecan Infinite M200).

[2] = In vitro percutaneous absorption, Franz static diffusion cells; assay type: in vitro ADME; conditions: pig skin biopsies, 24 h exposure; for effect of acylation on skin absorption: versus phloretin and 4′-O-α-glucoside
Protocol: The study was carried out in vitro with pig biopsies placed on Franz static diffusion cells (3 mL, 1.86 cm^2 of exposed area, […], Lara-Spiral, Courtenon, France) in order to determine the distribution of the active compound (API) at the different skin layers after an exposure time of 24 h. All materials and procedures for this test have been described in a previous report employing phloretin and two glucosides.[33] The concentration of the extracted active compound was determined with the HPLC method described before.
Figure 6 In vitro percutaneous absorption of acylated derivatives of phloretin and their precursors (phloretin and its 4′-O-α-glucoside) within the different skin layers. W is the surface excess, SC is the stratum corneum, E is the epidermis, D is the dermis, FR is the fluid receptor, and Perc. Abs. is the percutaneous absorption. The results are expressed as μg/cm^2 of the active pharmaceutical ingredient (API). Mean values ± standard deviations, n = 3; *p < 0.05 vs phloretin; ^#p < 0.05 vs α-Glc-phloretin.

[3] = parameters: method as in doi:10.1002/adsc.202100201; conditions: cited from earlier work

Structure (SMILES)	solubility at 3 days [1] [µg/mL]	effect of acylation on skin absorption [2]	percutaneous absorption, increase versus phloretin and 4′-O-α-glucoside [2]	aqueous solubility greater than aglycone ([3]; versus phloretin aglycone) [fold]	solubility ([3]; water, 25 °C, data available in a previous article) [µg/mL]
CCCCCCCC(=O)OC[C@H]1O[C@H](Oc2cc(O)c(C(=O)CCc3ccc(O)cc3)c(O)c2)[C@H](O)[C@@H](O)[C@@H]1O [1a, phloretin 4′-O-(6-O-octanoyl)-α-D-glucopyranoside]	22.1 ± 0.5 (≈ 39.3 µM)	no significant effect			
CCCCCCCCCCCCCCCC(=O)OC[C@H]1O[C@H](Oc2cc(O)c(C(=O)CCc3ccc(O)cc3)c(O)c2)[C@H](O)[C@@H](O)[C@@H]1O [1c, phloretin 4′-O-(6-O-palmitoyl)-α-D-glucopyranoside]	7.1 ± 0.3 (≈ 10.5 µM)	no significant effect			
CCCCCCCCCCCC(=O)OC[C@H]1O[C@H](Oc2cc(O)c(C(=O)CCc3ccc(O)cc3)c(O)c2)[C@H](O)[C@@H](O)[C@@H]1O [1b, phloretin 4′-O-(6-O-lauroyl)-α-D-glucopyranoside]	6 ± 0.2 (≈ 9.7 µM)		approximately 3 fold		
O=C(CCc1ccc(O)cc1)c1c(O)cc(O[C@H]2O[C@H](CO)[C@@H](O)[C@H](O)[C@H]2O)cc1O [phloretin 4′-O-α-D-glucoside, phloretin 4′-O-α-D-glucopyranoside]				71	1644 ± 101 (≈ 3770 µM)

— publication PMC10905995, “Strategy for the Enzymatic Acylation of the Apple Flavonoid Phloretin Based on Prior α-Glucosylation” (Journal of Agricultural and Food Chemistry, 2024)
